From US9314468B2, “Chemokine receptor modulators” (Altiris Therapeutics, Inc., priority 2008, dated 2016)
Counter-ions that a name gives are not always drawn.

Legend:
T-tropic HIV = experiment: Phenoscreen HIV entry inhibition assay; format: cell-based; details: Human immunodeficiency virus 1, read-out: IC50 for viral entry inhibition
Protocol: A selected set of compounds are tested for their ability to inhibit the cellular entry of T-tropic HIV. The assay for this inhibition is carried out on a contractual basis at Monogram Biosciences, Inc. using their well established Phenoscreen™ assay. Briefly, HIV strains of interest are tagged with a luciferase indicator gene to create an appropriate test vector. The test vector is amplified through transfection and the resulting virus is incubated in the presence of target host cells where intracellular […] activity then becomes a measure of infection. Amplified virus is exposed to target host cells in the presence of a range of test drug concentrations to determine IC50 measurements of entry inhibition. A modification of this test is further reapplied as a novel drug assay used in partnership with a number of pharmaceutical companies to test the effectiveness of novel entry inhibitors that target specific chemokines. It can used to detect activity against T-tropic, M-tropic, and dual-tropic viruses and Monogram Biosciences has a large bank of over 10,000 different virus strains to ultimately asses the range of applicability of our chemokine modulators. Certain compounds are tested to establish efficacy in a number of viral strains.

[1] = Cytotoxicity assay, 6 days; format: cell-based; details: human, CCRF-CEM cells
Protocol: Cytotoxicity of the compounds was assessed by the following assay. CCRF-CEM cells in media (RPMI 1640, 15% FBS, Pen/Strep., 1% non-essential amino acids) are incubated with various concentrations of test compound for 6 days undisturbed. Cell number relative to no compound controls is determined using either Serotec's “Alamar blue” per manufacturers protocol or Promega's “Cell Titer 96 Aqueous One Solution Cell Proliferation Assay” kit per manufacturers protocol. The number cells not surviving after test compound administration is determined for each concentration tested and the EC50 (concentration of compound in which 50% of the cells survive) is determined

[2] = target: hERG (human ether-á-go-go-related gene) potassium channel (Homo sapiens (Human), UniProt Q12809); experiment: hERG potassium channel current, automatic patch clamp; format: cell-based; details: PatchXpress, 5 minutes exposure, room temperature
Protocol: The in vitro effects of the selected compounds on the hERG (human ether-á-go-go-related gene) potassium channel current (a surrogate for IKr, the rapidly activating, delayed rectifier cardiac potassium current) expressed in mammalian cells were evaluated at room temperature using the PatchXpress 7000A (Molecular Devices), an automatic parallel patch clamp system.

CXCR4 = CXCR4 (Homo sapiens (Human), UniProt P61073); experiment: Functional calcium mobilization assay (SDF-1α induced); format: cell-based; details: Table 9, selected compounds; read-out: Ca Flux IC50
[3] = in vivo; cited from earlier work
MT-4 cells = details: cited from earlier work
HIV = details: MT-4 cells; read-out: concentration required for 50% protection of HIV-induced cytopathogenicity; cited from earlier work

Chain of hERG (human ether-á-go-go-related gene) potassium channel (Q12809 whole entry): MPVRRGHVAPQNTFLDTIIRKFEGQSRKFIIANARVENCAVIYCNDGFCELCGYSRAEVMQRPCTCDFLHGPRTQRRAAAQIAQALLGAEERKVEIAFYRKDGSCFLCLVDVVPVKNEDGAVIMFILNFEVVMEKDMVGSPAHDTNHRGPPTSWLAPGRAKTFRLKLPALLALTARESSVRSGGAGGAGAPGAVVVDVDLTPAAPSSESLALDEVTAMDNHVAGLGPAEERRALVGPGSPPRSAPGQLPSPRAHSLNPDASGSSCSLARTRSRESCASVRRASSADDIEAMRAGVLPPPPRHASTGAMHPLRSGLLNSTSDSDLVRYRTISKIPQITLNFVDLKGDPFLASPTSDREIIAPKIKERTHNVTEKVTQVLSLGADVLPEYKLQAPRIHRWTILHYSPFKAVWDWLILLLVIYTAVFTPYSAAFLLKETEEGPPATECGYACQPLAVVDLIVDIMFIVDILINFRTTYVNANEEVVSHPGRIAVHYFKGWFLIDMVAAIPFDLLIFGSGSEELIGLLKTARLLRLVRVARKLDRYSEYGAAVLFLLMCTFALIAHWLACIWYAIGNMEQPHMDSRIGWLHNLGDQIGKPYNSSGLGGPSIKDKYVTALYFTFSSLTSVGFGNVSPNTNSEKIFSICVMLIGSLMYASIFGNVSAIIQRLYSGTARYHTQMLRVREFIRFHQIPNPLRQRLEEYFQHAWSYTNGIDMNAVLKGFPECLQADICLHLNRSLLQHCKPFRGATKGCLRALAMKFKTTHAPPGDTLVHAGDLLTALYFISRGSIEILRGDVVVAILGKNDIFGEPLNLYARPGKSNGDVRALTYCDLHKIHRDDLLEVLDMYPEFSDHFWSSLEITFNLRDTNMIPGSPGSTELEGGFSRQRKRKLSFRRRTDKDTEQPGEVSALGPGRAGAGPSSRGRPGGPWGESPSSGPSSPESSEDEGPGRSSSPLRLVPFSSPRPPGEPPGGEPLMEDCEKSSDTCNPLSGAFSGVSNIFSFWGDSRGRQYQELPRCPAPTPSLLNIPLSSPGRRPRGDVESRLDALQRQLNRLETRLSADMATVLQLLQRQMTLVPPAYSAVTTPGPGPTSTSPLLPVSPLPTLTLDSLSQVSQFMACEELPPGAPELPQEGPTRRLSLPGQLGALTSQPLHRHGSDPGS
Chain of CXCR4 (P61073 whole entry): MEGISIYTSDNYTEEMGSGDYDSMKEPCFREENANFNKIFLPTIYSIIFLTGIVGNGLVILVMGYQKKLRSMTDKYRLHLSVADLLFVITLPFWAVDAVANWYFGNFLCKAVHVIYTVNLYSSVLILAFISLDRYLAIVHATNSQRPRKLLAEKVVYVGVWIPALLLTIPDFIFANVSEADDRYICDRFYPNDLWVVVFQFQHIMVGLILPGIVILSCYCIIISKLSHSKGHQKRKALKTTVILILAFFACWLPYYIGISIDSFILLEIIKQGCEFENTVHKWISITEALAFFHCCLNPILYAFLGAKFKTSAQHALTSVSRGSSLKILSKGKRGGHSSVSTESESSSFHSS

Molecule | IC50 (T-tropic HIV) | IC50 [2] | IC50 (CXCR4) | other results
NCCCCN(Cc1nccc2c1[nH]c1ccccc12)C1CCCc2cccnc21 (stereo not shown) [A, N-((9H-pyrido[3,4-b]indol-1-yl)methyl)-N-(4-aminobutyl)-5,6,7,8-tetrahydroquinolin-8-amine tetrahydrochloride] | ≤ 10000 nM |  |  | 
NCCCCN(Cc1nccc2c3ccccc3n(CC(=O)O)c12)[C@H]1CCCc2cccnc21 [drawing 820] |  | 2700 nM | 22 nM | EC50 at 6 days [1]: 30000 nM
c1cc(CN2CCCNCCNCCCNCC2)ccc1CN1CCCNCCNCCCNCC1 [AMD3100] |  |  |  | side effect in clinical study [3]: cardiac-related side effect
CC(C)CN(CCC[C@H](NC1CCCc2cccnc21)C(=O)N[C@H](C)c1cccc2ccccc12)CC(C)C (stereo partly drawn) [AY, (S)-5-(diisobutylamino)-N-((R)-1-(naphthalen-1-yl)ethyl)-2-(5,6,7,8-tetrahydroquinolin-8-ylamino)pentanamide trihydrochloride] | ≤ 10000 nM |  |  | 
NCCCCN(Cc1nccc2c3ccccc3n(CC(N)=O)c12)[C@H]1CCCc2cccnc21 [drawing 832] |  | 1800 nM | 18 nM | 
NCCCCN(Cc1cccc2cc[nH]c12)C1CCCc2cccnc21 (stereo not shown) [B, N1-((1H-indol-7-yl)methyl)-N1-(5,6,7,8-tetrahydroquinolin-8-yl)butane-1,4-diamine] | ≤ 10000 nM |  |  | 
c1ccc(-n2cc(CN(CCCCNCc3ccccn3)C3CCCc4cccnc43)nn2)cc1 (stereo not shown) [AB, N1-((1-phenyl-1H-1,2,3-triazol-4-yl)methyl)-N4-(pyridin-2-ylmethyl)-N1-(5,6,7,8-tetrahydroquinolin-8-yl)butane-1,4-diamine hydrochloride] | ≤ 10000 nM |  |  | 
c1cnc2c(c1)CCCC2N(CCCN1CCNCC1)Cc1nccc2c3ccccc3n(CCN3CCOCC3)c12 (stereo not shown) [drawing 830] |  | 3100 nM | 24 nM | 
NCCCCN(Cc1nccc2c3ccccc3n(CCCN3CCNCC3)c12)[C@H]1CCCc2cccnc21 [drawing 822] |  | 4100 nM | 16 nM | EC50 at 6 days [1]: 30000 nM
NCCCCN(Cc1cn(-c2ccccc2)nn1)C1CCCc2cccnc21 (stereo not shown) [Z, N-(4-aminobutyl)-N-((1-phenyl-1H-1,2,3-triazol-4-yl)methyl)-5,6,7,8-tetrahydro-quinolin-8-amine tetrahydrochloride] | ≤ 10000 nM |  |  | 
TN14003 |  |  |  | concentration leading to 50% toxicity (MT-4 cells): 410; EC50 (HIV): 0.6 nM
CN(Cc1nnc(-c2ccccc2)n1C)C1CCCc2cccnc21 (stereo not shown) [BP, N-methyl-N-((4-methyl-5-phenyl-4H-1,2,4-triazol-3-yl)methyl)-5,6,7,8-tetrahydroquinolin-8-amine] | ≤ 10000 nM |  |  | 
